In one experiment the target is PTK2B (human) (UniProt Q14289). Description: KINOMEscan competition binding. The following applies: compound 10.0 µM.
Another experiment deals with PIP4K2B (human) (UniProt P78356). Description: KINOMEscan competition binding. The settings on record: compound 10.0 µM.
The target in experiment [1] is TYK2 JH2 pseudokinase (human) (UniProt P29597). Description: KINOMEscan competition binding. The following applies: compound 10.0 µM.
Another experiment deals with RPS6KA6 KD2 (human) (UniProt Q9UK32). Description: KINOMEscan competition binding. The following applies: compound 10.0 µM.
For the next experiment, the target named is PLK3 (human) (UniProt Q9H4B4). Description: KINOMEscan competition binding. The following applies: compound 10.0 µM.
The next experiment deals with ULK1 (human) (UniProt O75385). Description: KINOMEscan competition binding. The following applies: compound 10.0 µM.
A further experiment has as its target BMP2K (human) (UniProt Q9NSY1). Description: KINOMEscan competition binding. The settings on record: compound 10.0 µM.
In another experiment the target is FER (human) (UniProt P16591). Description: KINOMEscan competition binding. The following applies: compound 10.0 µM.
In another experiment the target is RIOK1 (human) (UniProt Q9BRS2). Description: KINOMEscan competition binding. The following applies: compound 10.0 µM.
The subject of experiment [2] is EGFR (human), P00533 [A750P; 747-749 del]. Description: KINOMEscan competition binding. The following applies: compound 10.0 µM.
For another experiment, the target named is FES (human) (UniProt P07332). Description: KINOMEscan competition binding. The following applies: compound 10.0 µM.
The target of a further experiment is CAMKK2 (human) (UniProt Q96RR4). Description: KINOMEscan competition binding. The settings on record: compound 10.0 µM.
For experiment [3], the system named is FLT3 (human), P36888 [D835H]. Description: KINOMEscan competition binding. The settings on record: compound 10.0 µM.
Another experiment addresses CHEK1 (human) (UniProt O14757). Description: KINOMEscan competition binding. The settings on record: compound 10.0 µM.
The target of another experiment is RPS6KA1 KD2 (human) (UniProt Q15418). Description: KINOMEscan competition binding. The settings on record: compound 10.0 µM.
For another experiment, the target named is NEK9 (human) (UniProt Q8TD19). Description: KINOMEscan competition binding. The following applies: compound 10.0 µM.
For a further experiment, the target named is GAK (human) (UniProt O14976). Description: KINOMEscan competition binding. The following applies: compound 10.0 µM.
Another experiment deals with ULK2 (human) (UniProt Q8IYT8). Description: KINOMEscan competition binding. The settings on record: compound 10.0 µM.
A further experiment has as its target SIK2 (human) (UniProt Q9H0K1). Description: KINOMEscan competition binding. The following applies: compound 10.0 µM.
Experiment [4] has as its system FLT3 (human), P36888 [D835Y]. Description: KINOMEscan competition binding. The following applies: compound 10.0 µM.
In a further experiment the target is TNK2 (human) (UniProt Q07912). Description: KINOMEscan competition binding. The settings on record: compound 10.0 µM.
In the next experiment the target is NEK5 (human) (UniProt Q6P3R8). Description: KINOMEscan competition binding. The following applies: compound 10.0 µM.
The target of the next experiment is MERTK (human) (UniProt Q12866). Description: KINOMEscan competition binding. The settings on record: compound 10.0 µM.
A further experiment has as its target PTK2 (human) (UniProt Q05397). Description: KINOMEscan competition binding. The following applies: compound 10.0 µM.
The subject of experiment [5] is ABL1 (human), P00519 [F317I]. Description: KINOMEscan competition binding. The settings on record: compound 10.0 µM.
The target of another experiment is STK10 (human) (UniProt O94804). Description: KINOMEscan competition binding. The following applies: compound 10.0 µM.
A further experiment addresses DCLK3 (human) (UniProt Q9C098). Description: KINOMEscan competition binding. The following applies: compound 10.0 µM.
Experiment [6] deals with ABL1 (human), P00519 [F317L]. Description: KINOMEscan competition binding. The settings on record: compound 10.0 µM.
For experiment [7], the target named is TTK (human) (UniProt P33981). Description: KINOMEscan competition binding. The following applies: for kinase still bound, per cent of control: compound 10.0 µM.
Another experiment has as its target PLK1 (human) (UniProt P53350). Description: KINOMEscan competition binding. The settings on record: compound 10.0 µM.
For another experiment, the target named is DAPK3 (human) (UniProt O43293). Description: KINOMEscan competition binding. The following applies: compound 10.0 µM.
A further experiment concerns the target STK33 (human) (UniProt Q9BYT3). Description: KINOMEscan competition binding. The following applies: compound 10.0 µM.
The target in the next experiment is SLK (human) (UniProt Q9H2G2). Description: KINOMEscan competition binding. The settings on record: compound 10.0 µM.
In the next experiment the target is SIK1 (human) (UniProt P57059). Description: KINOMEscan competition binding. The following applies: compound 10.0 µM.
The target of another experiment is FRK (human) (UniProt P42685). Description: KINOMEscan competition binding. The settings on record: compound 10.0 µM.
A further experiment addresses EPHA8 (human) (UniProt P29322). Description: KINOMEscan competition binding. The settings on record: compound 10.0 µM.
Experiment [8] addresses TTK (human) (UniProt P33981). Description: SelectScreen, TR FRET. In general terms: TR-FRET usually uses a lanthanide donor and a delayed reading to cut background.

Sequence of TTK (human) (P33981 whole entry, looked up): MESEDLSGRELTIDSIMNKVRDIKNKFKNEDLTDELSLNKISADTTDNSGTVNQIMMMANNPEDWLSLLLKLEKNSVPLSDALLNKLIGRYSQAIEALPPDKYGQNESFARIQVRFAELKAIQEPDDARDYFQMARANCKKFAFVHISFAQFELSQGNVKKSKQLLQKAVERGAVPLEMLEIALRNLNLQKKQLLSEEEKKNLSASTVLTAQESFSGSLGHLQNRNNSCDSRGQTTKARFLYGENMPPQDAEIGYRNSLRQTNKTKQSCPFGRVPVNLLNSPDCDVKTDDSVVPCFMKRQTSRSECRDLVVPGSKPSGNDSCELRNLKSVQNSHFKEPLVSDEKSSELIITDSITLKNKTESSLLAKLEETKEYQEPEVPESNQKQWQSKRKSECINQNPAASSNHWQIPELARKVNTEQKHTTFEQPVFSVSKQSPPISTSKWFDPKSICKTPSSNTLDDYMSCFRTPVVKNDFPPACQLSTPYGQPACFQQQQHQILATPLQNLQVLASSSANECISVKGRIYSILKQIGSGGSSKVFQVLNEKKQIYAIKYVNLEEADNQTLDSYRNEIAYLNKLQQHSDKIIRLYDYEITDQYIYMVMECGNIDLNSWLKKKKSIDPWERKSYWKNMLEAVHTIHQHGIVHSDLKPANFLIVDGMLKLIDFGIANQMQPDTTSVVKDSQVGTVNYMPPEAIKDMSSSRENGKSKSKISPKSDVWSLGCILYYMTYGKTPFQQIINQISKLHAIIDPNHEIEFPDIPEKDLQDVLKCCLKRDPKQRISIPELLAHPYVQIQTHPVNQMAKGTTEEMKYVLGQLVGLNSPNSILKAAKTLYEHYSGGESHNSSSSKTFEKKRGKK
Sequence of GAK (human) (O14976 whole entry, looked up): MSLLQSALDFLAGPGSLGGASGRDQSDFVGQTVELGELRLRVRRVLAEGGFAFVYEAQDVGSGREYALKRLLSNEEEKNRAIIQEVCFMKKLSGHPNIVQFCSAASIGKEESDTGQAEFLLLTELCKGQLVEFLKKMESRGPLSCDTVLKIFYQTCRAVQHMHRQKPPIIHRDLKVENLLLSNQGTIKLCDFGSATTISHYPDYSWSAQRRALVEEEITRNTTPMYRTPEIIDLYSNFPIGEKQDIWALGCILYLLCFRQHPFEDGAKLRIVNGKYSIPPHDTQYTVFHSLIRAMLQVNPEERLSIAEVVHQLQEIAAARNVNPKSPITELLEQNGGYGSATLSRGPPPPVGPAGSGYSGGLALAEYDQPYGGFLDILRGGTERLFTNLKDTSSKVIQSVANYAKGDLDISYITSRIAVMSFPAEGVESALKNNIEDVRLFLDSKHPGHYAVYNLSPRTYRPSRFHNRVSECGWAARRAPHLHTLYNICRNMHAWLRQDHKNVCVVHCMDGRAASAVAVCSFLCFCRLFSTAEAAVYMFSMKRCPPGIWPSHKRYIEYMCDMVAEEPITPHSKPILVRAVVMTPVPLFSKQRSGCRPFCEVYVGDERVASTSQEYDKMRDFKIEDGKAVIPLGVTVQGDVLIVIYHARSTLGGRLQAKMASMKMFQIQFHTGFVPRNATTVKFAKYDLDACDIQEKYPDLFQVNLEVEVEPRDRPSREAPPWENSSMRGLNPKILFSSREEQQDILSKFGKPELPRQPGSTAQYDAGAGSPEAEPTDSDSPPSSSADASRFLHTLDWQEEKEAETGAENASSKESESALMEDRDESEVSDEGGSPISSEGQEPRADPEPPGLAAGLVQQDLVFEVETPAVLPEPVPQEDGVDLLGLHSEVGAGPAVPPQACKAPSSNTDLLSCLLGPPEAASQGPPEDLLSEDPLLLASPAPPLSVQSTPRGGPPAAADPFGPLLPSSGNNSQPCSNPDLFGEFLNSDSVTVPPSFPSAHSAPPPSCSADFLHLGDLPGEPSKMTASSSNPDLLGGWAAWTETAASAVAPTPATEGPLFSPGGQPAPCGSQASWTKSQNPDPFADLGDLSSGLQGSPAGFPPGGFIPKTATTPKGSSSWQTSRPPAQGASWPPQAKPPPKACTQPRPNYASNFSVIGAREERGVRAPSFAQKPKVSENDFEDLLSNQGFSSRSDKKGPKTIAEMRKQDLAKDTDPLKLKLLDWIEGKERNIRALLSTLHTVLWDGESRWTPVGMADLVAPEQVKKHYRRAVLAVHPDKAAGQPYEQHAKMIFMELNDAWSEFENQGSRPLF
Sequence of PLK1 (human) (P53350 whole entry, looked up): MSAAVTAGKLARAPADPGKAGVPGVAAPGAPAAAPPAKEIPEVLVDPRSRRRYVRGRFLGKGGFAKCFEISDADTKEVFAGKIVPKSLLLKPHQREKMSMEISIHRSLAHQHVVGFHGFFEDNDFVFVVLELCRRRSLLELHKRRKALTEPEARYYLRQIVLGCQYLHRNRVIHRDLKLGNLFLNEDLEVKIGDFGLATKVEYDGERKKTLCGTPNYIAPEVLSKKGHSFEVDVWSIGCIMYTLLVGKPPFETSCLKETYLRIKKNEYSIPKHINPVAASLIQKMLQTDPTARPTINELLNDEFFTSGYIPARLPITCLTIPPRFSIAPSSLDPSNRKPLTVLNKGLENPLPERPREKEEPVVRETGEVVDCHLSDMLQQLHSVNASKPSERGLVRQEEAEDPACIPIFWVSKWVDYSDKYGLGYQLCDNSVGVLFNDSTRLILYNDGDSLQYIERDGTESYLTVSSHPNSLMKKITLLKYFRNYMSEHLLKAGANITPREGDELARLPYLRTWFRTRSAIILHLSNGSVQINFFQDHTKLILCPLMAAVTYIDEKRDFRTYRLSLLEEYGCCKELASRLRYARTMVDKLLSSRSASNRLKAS
Sequence of PTK2B (human) (Q14289 whole entry, looked up): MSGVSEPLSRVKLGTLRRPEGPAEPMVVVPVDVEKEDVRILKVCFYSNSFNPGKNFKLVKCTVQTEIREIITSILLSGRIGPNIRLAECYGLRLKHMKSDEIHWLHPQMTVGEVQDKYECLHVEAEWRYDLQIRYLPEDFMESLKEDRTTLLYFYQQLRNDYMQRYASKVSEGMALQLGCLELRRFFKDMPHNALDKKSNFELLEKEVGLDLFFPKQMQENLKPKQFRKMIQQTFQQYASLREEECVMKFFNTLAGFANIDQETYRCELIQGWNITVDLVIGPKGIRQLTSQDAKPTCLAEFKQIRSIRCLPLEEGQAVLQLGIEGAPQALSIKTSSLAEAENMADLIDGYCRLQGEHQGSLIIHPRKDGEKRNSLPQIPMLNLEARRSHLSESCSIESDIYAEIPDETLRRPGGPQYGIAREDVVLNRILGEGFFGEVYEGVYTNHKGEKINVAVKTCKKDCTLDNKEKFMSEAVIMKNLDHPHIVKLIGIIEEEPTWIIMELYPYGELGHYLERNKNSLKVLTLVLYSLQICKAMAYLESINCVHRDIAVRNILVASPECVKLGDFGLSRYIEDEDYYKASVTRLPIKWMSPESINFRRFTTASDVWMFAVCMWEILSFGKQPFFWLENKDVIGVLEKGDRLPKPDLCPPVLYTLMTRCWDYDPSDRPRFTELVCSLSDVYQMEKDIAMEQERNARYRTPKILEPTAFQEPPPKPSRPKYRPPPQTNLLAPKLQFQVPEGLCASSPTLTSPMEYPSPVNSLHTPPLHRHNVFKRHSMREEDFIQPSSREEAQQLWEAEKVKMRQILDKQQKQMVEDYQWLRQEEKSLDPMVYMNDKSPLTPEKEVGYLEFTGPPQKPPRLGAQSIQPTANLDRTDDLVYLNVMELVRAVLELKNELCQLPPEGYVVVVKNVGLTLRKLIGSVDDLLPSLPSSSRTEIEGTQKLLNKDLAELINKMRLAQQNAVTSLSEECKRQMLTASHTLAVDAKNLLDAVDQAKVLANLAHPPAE
Sequence of ABL1 (human), P00519 [F317L] (P00519 whole entry F317L, looked up): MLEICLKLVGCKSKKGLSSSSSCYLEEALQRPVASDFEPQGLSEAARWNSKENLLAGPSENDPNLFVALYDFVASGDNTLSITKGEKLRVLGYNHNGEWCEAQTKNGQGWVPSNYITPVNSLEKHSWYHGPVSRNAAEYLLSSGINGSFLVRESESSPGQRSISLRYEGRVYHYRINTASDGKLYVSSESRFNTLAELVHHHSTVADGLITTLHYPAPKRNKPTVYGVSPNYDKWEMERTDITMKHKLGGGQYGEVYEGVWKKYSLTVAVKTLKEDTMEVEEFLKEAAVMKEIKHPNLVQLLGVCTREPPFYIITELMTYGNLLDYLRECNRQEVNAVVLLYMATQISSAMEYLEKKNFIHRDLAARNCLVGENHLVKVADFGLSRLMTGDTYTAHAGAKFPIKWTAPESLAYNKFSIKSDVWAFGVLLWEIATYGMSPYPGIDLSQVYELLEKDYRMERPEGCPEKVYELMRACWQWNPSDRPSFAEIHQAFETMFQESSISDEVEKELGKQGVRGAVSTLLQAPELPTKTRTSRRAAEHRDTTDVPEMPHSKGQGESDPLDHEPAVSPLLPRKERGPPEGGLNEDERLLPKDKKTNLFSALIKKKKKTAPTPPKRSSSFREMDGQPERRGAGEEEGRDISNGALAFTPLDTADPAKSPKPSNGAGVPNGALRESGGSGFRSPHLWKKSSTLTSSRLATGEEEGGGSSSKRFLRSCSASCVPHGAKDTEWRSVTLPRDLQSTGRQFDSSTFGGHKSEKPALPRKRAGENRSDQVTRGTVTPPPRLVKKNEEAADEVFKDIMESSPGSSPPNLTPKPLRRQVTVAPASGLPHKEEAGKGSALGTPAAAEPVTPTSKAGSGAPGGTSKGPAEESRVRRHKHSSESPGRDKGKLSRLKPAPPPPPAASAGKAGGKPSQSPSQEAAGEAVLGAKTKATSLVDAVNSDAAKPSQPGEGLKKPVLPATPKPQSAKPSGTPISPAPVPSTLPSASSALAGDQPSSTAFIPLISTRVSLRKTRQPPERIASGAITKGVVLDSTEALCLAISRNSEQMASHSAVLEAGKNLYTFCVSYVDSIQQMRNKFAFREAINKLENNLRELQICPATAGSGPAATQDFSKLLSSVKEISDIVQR
Sequence of ABL1 (human), P00519 [F317I] (P00519 whole entry F317I, looked up): as the sequence (P00519 whole entry F317L, looked up) above, with L317I counted along it

Take `COc1cc(N2CCN(C)CC2)ccc1Nc1ncc2c(n1)N(C1CCCC1)C(C)CC(=O)N2` (stereo unspecified): the kinase still bound, per cent of control on PTK2B (human) is 13%; at PIP4K2B (human) it was 31%; in [1], 32%; on RPS6KA6 KD2 (human), 4.7%; on PLK3 (human), 11%; on ULK1 (human) it was 7.8%. In addition, the kinase still bound, per cent of control on BMP2K (human) came out at 19%; at FER (human), 21%; on RIOK1 (human), 32%; in experiment [2] it was 33%; on FES (human), 26%; on CAMKK2 (human), 31%. Further, the kinase still bound, per cent of control is 30% in experiment [3]; 14% at CHEK1 (human); 22% on RPS6KA1 KD2 (human); 27% on NEK9 (human); 1% at GAK (human); 1.2% on ULK2 (human). Besides, the kinase still bound, per cent of control at SIK2 (human) was determined as 26%; in [4], 26%; at TNK2 (human), 7.4%; at NEK5 (human), 30%; on MERTK (human) it was 23%; on PTK2 (human), 1.9%. The kinase still bound, per cent of control stood at 29% in experiment [5]; 10% at STK10 (human); 4% at DCLK3 (human); 30% in experiment [6]; 14% at TTK (human) [7]; 2.1% on PLK1 (human). The kinase still bound, per cent of control on DAPK3 (human) is 13%; at STK33 (human) it was 18%; on SLK (human) it was 3.2%; at SIK1 (human), 14%; at FRK (human), 7%.
The Kd is the concentration at which binding is half-saturated. Read a low Kd as higher affinity. What is called IC50 is the point on the concentration scale where inhibition reaches its midpoint. High values mean lower potency, low ones higher potency. As to `CC(C)Oc1cc(N2CCC(O)CC2)ccc1Nc1ncc2c(n1)N(C1CCCC1)CCC(=O)N2C`, the kinase still bound, per cent of control on EPHA8 (human) turned out to be 0%; at GAK (human), 29%; on TTK (human) [7], 2.4%; at PLK1 (human), 14%. At TTK (human) [7], this compound had a dissociation constant Kd of 0.113 µM. Moreover, the half-maximal inhibitory concentration (IC50) at TTK (human) [8] was 0.605 µM.

The values above are taken from the kinase profiling compilation of Christmann-Franck et al. (2016).
